Read-outs that look alike come from different tables or passages of the source.
Assays:
[1] = test system: H460; assay: Cytotoxicity under normoxia and hypoxia (anaerobic chamber, sulphorhodamine B), H460; format: cell-based, human; settings: for DR (Deactivation Ratio): DR = IC50 (prodrug)/IC50 (parent drug); for IC50: Homo sapiens, NCI-H460, 4 h exposure, 5 days growth
Protocol: (§1) We also checked if the designed prodrugs were able to liberate the active alkaloids in hypoxic tumors by testing them under hypoxic conditions using an anaerobic chamber. The three prodrugs 5a–c and their parent alkaloids as well as the reference compounds PR-104A, the parent alcohol form of the phosphate pre-prodrug PR-104, and evofosfamide were tested using the HCT116 and H460 cell lines under both normoxic and hypoxic conditions (Table 5). The prodrugs were much less cytotoxic than the parent drugs, in agreement with our observations using the other cell lines described above (Figure 6).
(§2) The extent to which a prodrug is deactivated relative to its parent drug under normoxic conditions is defined as the Deactivation Ratio (DR). The DR can be simply calculated as DR = IC50 (prodrug)/IC50 (parent drug).
(§3) The efficacy of prodrug activation under hypoxic conditions can be expressed by the Hypoxia Cytotoxicity Ratio (HCR), which can be calculated for a given prodrug as: HCR = normoxic IC50/hypoxic IC50.
(§4) The eight cell lines HEK293 (Human embryonic kidney 293), CHO-K1 (Chinese hamster ovary K1), MCF-7 cells (Human breast adenocarcinoma), HCT116 (human colorectal carcinoma), RKO (Human rectal carcinoma), SW480 (human colorectal carcinoma), H460 (Human lung cancer), and MRC5 (Normal human foetal lung fibroblast), were obtained from the ATCC. The cell lines were routinely grown in alpha minimum essential medium (α-MEM) containing 5% foetal calf serum (FCS). The appropriate number of cells (HCT116 = 400 cells/well, H460 cells = 600 cells/well) were seeded into 96-well plates under normoxic or hypoxic conditions. Cells were plated in 100 µL α-MEM containing 10% FCS, 10mM D-Glucose and 0.2mM 2′-deoxycytidine. After incubation for 2 h, the compounds were added at the appropriate concentration and incubated for further 4 h. The cells were then washed three times with drug-free α-MEM (containing 5% FCS and pen/strep). The plates were then incubated for 5 days under normoxic conditions. The cells were stained with sulphorhodamine B to measure total cells. The IC50 was determined by interpolation as the compound concentration reducing staining to 50% of controls on the same plate.

[2] = test system: MRC5; assay: Cytotoxicity (MTT) under normoxia, MRC5; format: cell-based; settings: Homo sapiens, MRC5, read-out: IC50 MRC5
Protocol: (§5) The cytotoxicity of the compounds 5a–c and their parent alkaloids was evaluated by the 3-[4,5-dimethylthiazole-2-yl]-2,5-diphenyltetrazolium bromide (MTT) assay against 5 cancerous and 2 non-cancerous cell lines (Table 4).
as §4

[3] = test system: HCT116; assay: Cytotoxicity (MTT) under normoxia, HCT116; format: cell-based; settings: Homo sapiens, HCT-116, read-out: IC50 HCT116
Protocol: as §5, §4

[4] = test system: MCF7; assay: Cytotoxicity (MTT) under normoxia, MCF7; format: cell-based; settings: Homo sapiens, MCF7, read-out: IC50 MCF7
Protocol: as §5, §4

[5] = test system: HCT116; assay: Cytotoxicity under normoxia and hypoxia (anaerobic chamber, sulphorhodamine B), HCT116; format: cell-based, human; settings: for DR (Deactivation Ratio): DR = IC50 (prodrug)/IC50 (parent drug); for IC50: Homo sapiens, HCT-116, 4 h exposure, 5 days growth
Protocol: as §1, §2, §3, §4

[6] = test system: SW480; assay: Cytotoxicity (MTT) under normoxia, SW480; format: cell-based; settings: Homo sapiens, SW480, read-out: IC50 SW480
Protocol: as §5, §4

[7] = test system: RKO; assay: Cytotoxicity (MTT) under normoxia, RKO; format: cell-based; settings: Homo sapiens, read-out: IC50 RKO
Protocol: as §5, §4

[8] = BBB-Parallel Artificial Membrane Permeability Assay (BBB-PAMPA); format: in vitro ADME; settings: mean ± SE
Protocol: The physicochemical properties of the new compounds were evaluated (Table 1). […] Consequently, these derivatives lost their BBB penetrability, as predicted by the BBB-Parallel Artificial Membrane Permeability Assay (BBB-PAMPA), whereas their parent alkaloids had free passage through the BBB.
(§6) Water solubility, logD, and PAMPA-BBB were evaluated using the protocols we previously described.

[9] = Human plasma stability test; format: in vitro ADME; settings: 37 °C, up to 24 h, read-out: t1/2 (Human Plasma) (converted)
Protocol: (§7) Incubations were carried out in 6 aliquots of 70 μL each in duplicates. […] The reactions were stopped by adding 350 μL of acetonitrile with subsequent plasma proteins sedimentation by centrifuging at 5500 rpm for 5 min. Supernatants were analyzed by LC-MS using Shimadzu VP HPLC system including vacuum degasser, gradient pumps, reverse phase column, column oven and autosampler. The HPLC system was coupled with tandem mass spectrometer API 3000 (PE Sciex, Foster City, CA, USA). Both the positive and negative ion modes of the TurboIonSpray ion source were used. The acquisition and analysis of the data were performed using Analyst 1.5.2 software (PE Sciex, API 3000 mass spectrometer, Foster City, CA, USA). The percentage of the test compounds remaining after incubation in plasma and their half-lives (T1/2) were calculated.

[10] = Plasma protein binding (PPB); format: in vitro ADME; settings: mean ± SE, read-out: PPB (% of Bound Compound) (converted)
Protocol: The physicochemical properties of the new compounds were evaluated (Table 1).

[11] = Mouse plasma stability test; format: in vitro ADME; settings: 37 °C, up to 24 h, read-out: t1/2 (Mouse Plasma) (converted)
Protocol: as §7

[12] = test system: HEK293; assay: Cytotoxicity (MTT) under normoxia, HEK293; format: cell-based; settings: Homo sapiens, HEK293, read-out: IC50 HEK293
Protocol: as §5, §4

[13] = LogD determination; format: physicochemical; settings: mean ± SE
Protocol: as §6

[14] = in vitro; settings: male, Balb/c, mouse, pH 7.4; for Kel (elimination rate constant) / metabolized into the parent drug: 2 μM; for metabolized into the parent drug / half-life at 2 μM: microsomes
Protocol: Mouse hepatic microsomes were isolated from pooled, perfused livers of Balb/c male mice according to the standard protocol. […] Microsomal incubations were carried out in 96-well plates in 5 aliquots of 40 μL each. […] Control incubations were performed by replacing the NADPH-cofactor system with PBS. The additional control incubations in PBS (with 3.3 mM MgCl2) without added microsomes were carried out in this study. […] The incubations were performed in duplicates. Five time points over 40 min had been analyzed. The reactions were stopped by adding 12 volumes of 90% acetonitrile-water to incubation aliquots, followed by protein sedimentation by centrifuging at 5500 rpm for 3 min. The supernatants were analyzed using LC-MS as mentioned above.

[15] = test system: CHO-K1; assay: Cytotoxicity (MTT) under normoxia, CHO-K1; format: cell-based, Chinese hamster; settings: Cricetulus griseus, CHO-K1, read-out: IC50 CHO-K1
Protocol: as §5, §4

[16] = Solubility in PBS (pH 7.4); format: physicochemical; settings: aqueous buffer, mean ± SE
Protocol: as §6

[17] = H460, hypoxia, read-out: IC50 (Hypoxia)
[18] = H460, normoxia, read-out: IC50 (Normoxia)
[19] = HCT116, hypoxia, read-out: IC50 (Hypoxia)
[20] = HCT116, normoxia, read-out: IC50 (Normoxia)

Compound | HCR (Hypoxia Cytotoxicity Ratio) [1] | DR (Deactivation Ratio) ([1]; H460, normoxia) | IC50 [1, 17] [µM] | IC50 [1, 18] [µM] | IC50 [2] [µM] | melting point [°C] | IC50 [3] [µM] | IC50 [4] [µM] | HCR (Hypoxia Cytotoxicity Ratio) [5] | DR (Deactivation Ratio) ([5]; HCT116, normoxia) | IC50 [5, 19] [µM] | IC50 [5, 20] [µM] | IC50 [6] [µM] | IC50 [7] [µM] | Permeability (Papp) [8] | half-life at 1 μM [9] [h] | fraction unbound [10] | half-life at 1 μM [11] [h] | IC50 [12] [µM] | logD [13] | further results
COc1cc2c3c(c4cc(OC)c(OC)cc4c2cc1OC)C[N+]1(Cc2c([N+](=O)[O-])ncn2C)CCC[C@@H]1C3.[Br-] (stereo partly drawn) [Compound 5c, (13aR)-2,3,6,7-tetramethoxy-10-((1-methyl-4-nitro-1H-imidazol-5-yl)methyl)-10,11,12,13,13a,14-hexahydro-9H-dibenzo[f,h]pyrrolo[1,2-b]isoquinolin-10-ium bromide] | 7.8 | 293 | 6.5 ± 1.81 | 51 | 3.94 ± 0.127 | 185 to 187 | 9.02 ± 1.13 | 8.05 ± 0.343 | 1.5 | 128 | 3.02 ± 0.656 | 9.05 ± 7.59 | 9.86 ± 1.69 | 8.82 ± 3.08 |  |  |  |  |  |  | 
COc1ccc2c3c(c4cc(OC)c(OC)cc4c2c1)C[C@H]1CCC[N+]1(Cc1c([N+](=O)[O-])ncn1C)C3.[Br-] (stereo partly drawn) [Compound 5a, (13aR)-2,3,6-trimethoxy-10-((1-methyl-4-nitro-1H-imidazol-5-yl)methyl)-10,11,12,13,13a,14-hexahydro-9H-dibenzo[f,h]pyrrolo[1,2-b]isoquinolin-10-ium bromide] | 26 | […] | 0.618 ± 0.044 | 15.8 | 0.327 ± 0.147 |  | 1.04 ± 0.021 | 1.53 ± 0.144 | 8.8 | […] | 0.425 ± 0.051 | […] | 1.35 ± 0.000126 | 2.03 ± 0.267 | […] | 145 ± 4.7 | 0.13 | […] | 5.08 ± 0.519 | […] | Kel (elimination rate constant) [14]: […]; metabolized into the parent drug [14]: […]; half-life at 2 μM [14]: […]; IC50 [15]: […]; solubility [16]: 154 µM
COc1cc2c3c(c4cc(OC)c(OC)cc4c2cc1OC)C[N+]1(Cc2c([N+](=O)[O-])ncn2C)CCC[C@H]1C3.[Br-] (stereo partly drawn) [Compound 5b, (13aS)-2,3,6,7-tetramethoxy-10-((1-methyl-4-nitro-1H-imidazol-5-yl)methyl)-10,11,12,13,13a,14-hexahydro-9H-dibenzo[f,h]pyrrolo[1,2-b]isoquinolin-10-ium bromide] | 24 | 719 | 3.22 ± 1.07 | 77.6 | 3.31 ± 0.163 | 165 to 167 | 3.3 ± 1.56 | 1.5 ± 0.128 | 11.3 | 689 | 1.46 ± 0.411 | 4.49 ± 0.698 | 7.25 ± 0.49 | 4.06 ± 0.181 | <−7 Log [10^−6 cm/s] | 63.3 ± 0.1 | 0.411 | 73 ± 1.7 | 0.95 ± 0.174 | 0.38 ± 0.04 | Kel (elimination rate constant) [14]: 0.002 ± 0 min⁻¹; metabolized into the parent drug [14]: less than 1%; half-life at 2 μM [14]: 6.733 ± 0.0533 h; IC50 [15]: 3.49 ± 0.843 µM; solubility [16]: 162 ± 3 µM
